Source: US4401604A, “Process for preparing thiosulfenamide derivatives of N-phosphonomethylglycine triesters” (Monsanto Company, priority 1981, dated 1983)

Experiments:
Test in all cases: Post-emergence herbicidal activity, greenhouse
Assay type in all cases: in vivo
Settings in all cases: Table I, 4 WAT
Downy Brome = system: Downy Brome
Excerpt: (§1) A good grade of top soil is placed in aluminum pans having holes in the bottom and compacted to a depth of 0.95 to 1.27 cm. from the top of the pan. A predetermined number of seeds of each of several dicotyledonous and monocotyledonous annual plant species and/or vegetative propagules for the perennial plant species are placed on the soil and pressed into the soil surface. The seeds and/or vegetative propagules are covered with soil and leveled. The pans are then placed on a sand bench in the greenhouse and watered from below as needed. After the plants reach the desired age (two to three weeks), each pan except for the control pans is removed individually to a spraying chamber and sprayed by means of an atomizer operating at a positive air pressure of approximately 1.46 kg/cm^2 absolute. The atomizer contains 6 ml. of a solution or suspension of the chemical. In that 6 ml., is an amount of a cyclohexanone emulsifying agent mixture to give a spray solution or suspension which contains about 0.4% by weight of the emulsifier. The spray solution or suspension contains a sufficient amount of the candidate chemical in order to give application rates corresponding to those set forth in the tables. The spray solution is prepared by taking an aliquot of a 1.0% by weight stock solution or suspension of the candidate chemical in an organic solvent such as acetone or tetrahydrofuran or in water. The emulsifying agent employed is a mixture comprising 35 weight percent butylamine dodecylbenzene sulfonate and 65 weight percent of a tall oil ethylene oxide condensate having about 11 moles of ethylene oxide per mole of tall oil. The pans are returned to the greenhouse and watered as before and the injury to the plants as compared to the control is observed at approximately two and four weeks as indicated in the tables under WAT and the results recorded. In some instances, the two-week observations are omitted.
(§2) The post-emergence herbicidal activity index used in Table I is as follows:
(§3) The plant species utilized in these tests are identified by letter in accordance with the following legend: […]

Quackgrass = system: Quackgrass
Excerpt: as §1, §2, §3

Morningglory = system: Morningglory
Excerpt: as §1, §2, §3

Cocklebur = system: Cocklebur
Excerpt: as §1, §2, §3

Velvetleaf = system: Velvetleaf
Excerpt: as §1, §2, §3

Johnsongrass = system: Johnsongrass
Excerpt: as §1, §2, §3

Lambsquarters = system: Lambsquarters
Excerpt: as §1, §2, §3

Barnyardgrass = system: Barnyardgrass
Excerpt: as §1, §2, §3

Yellow Nutsedge = system: Yellow Nutsedge
Excerpt: as §1, §2, §3

CCOC(=O)CN(CP(=O)(Oc1ccc(Cl)c(C)c1)Oc1ccc(Cl)c(C)c1)SSc1ccc(OC)cc1 [VII]
post-emergence herbicidal activity index (Downy Brome; 5.6 kg/h): 2 (50-74% control) | post-emergence herbicidal activity index (Downy Brome; 11.2 kg/h): 2 (50-74% control) | post-emergence herbicidal activity index (Quackgrass; 5.6 kg/h): 1 (25-49% control) | post-emergence herbicidal activity index (Quackgrass; 11.2 kg/h): 1 (25-49% control) | post-emergence herbicidal activity index (Morningglory; 5.6 kg/h): 1 (25-49% control) | post-emergence herbicidal activity index (Morningglory; 11.2 kg/h): 1 (25-49% control) | post-emergence herbicidal activity index (Cocklebur; 5.6 kg/h): 1 (25-49% control) | post-emergence herbicidal activity index (Cocklebur; 11.2 kg/h): 2 (50-74% control) | post-emergence herbicidal activity index (Velvetleaf; 5.6 kg/h): 1 (25-49% control) | post-emergence herbicidal activity index (Velvetleaf; 11.2 kg/h): 1 (25-49% control) | post-emergence herbicidal activity index (Johnsongrass; 5.6 kg/h): 3 (75-99% control) | post-emergence herbicidal activity index (Johnsongrass; 11.2 kg/h): 2 (50-74% control) | post-emergence herbicidal activity index (Lambsquarters; 5.6 kg/h): 2 (50-74% control) | post-emergence herbicidal activity index (Lambsquarters; 11.2 kg/h): 2 (50-74% control) | post-emergence herbicidal activity index (Barnyardgrass; 5.6 kg/h): 3 (75-99% control) | post-emergence herbicidal activity index (Barnyardgrass; 11.2 kg/h): 3 (75-99% control) | post-emergence herbicidal activity index (Yellow Nutsedge; 5.6 kg/h): 2 (50-74% control) | post-emergence herbicidal activity index (Yellow Nutsedge; 11.2 kg/h): 1 (25-49% control)
